From PubChem BioAssay AID330 (DTP/NCI, 2004)
Where “and” joins values, the source holds several entries; their conditions need not be identical. Equal entries are not always repeated. Inconclusive results and toxic doses are left out. The calls were made as follows: active = survival T/C of 150% or more; inactive = T/C below 125% in these data.

Test system: P388 leukemia ip, CD2F1 mice, survival T/C
Assay: NCI In Vivo Anticancer Drug Screen. Data for tumor model P388 Leukemia (intraperitoneal) in CD2F1 (CDF1) mice
Conditions: endpoint: median survival time, higher = longer survival
In short: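 Mice carrying the transplanted tumor received test compound or vehicle. Survival was recorded in each group, and the value is the treated-group measurement divided by that of the vehicle-treated control group.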

[1] = dose: 50.0 mg/kg/injection, schedule: Q01DX009 (ip), vehicle: Klucel (hydroxypropylcellulose) (HPC)
[2] = dose: 100.0 mg/kg/injection, schedule: Q01DX009 (ip), vehicle: Klucel (hydroxypropylcellulose) (HPC)
[3] = dose: 200.0 mg/kg/injection, schedule: Q01DX009 (ip), vehicle: Klucel (hydroxypropylcellulose) (HPC)
[4] = dose: 50.0 mg/kg/injection, schedule: Q01DX005 (ip), vehicle: saline
[5] = dose: 100.0 mg/kg/injection, schedule: Q01DX005 (ip), vehicle: saline
[6] = dose: 50.0 mg/kg/injection, schedule: Q01DX009 (ip), vehicle: saline with Tween-80
[7] = dose: 100.0 mg/kg/injection, schedule: Q01DX009 (ip), vehicle: saline with Tween-80
[8] = dose: 100.0 mg/kg/injection, schedule: Q04DX003 (ip), vehicle: saline with Tween-80
[9] = dose: 200.0 mg/kg/injection, schedule: Q04DX003 (ip), vehicle: saline with Tween-80
[10] = dose: 60.0 mg/kg/injection, schedule: Q01DX005 (ip), vehicle: saline with Tween-80
[11] = dose: 120.0 mg/kg/injection, schedule: Q01DX005 (ip), vehicle: saline with Tween-80
[12] = dose: 240.0 mg/kg/injection, schedule: Q01DX005 (ip), vehicle: saline with Tween-80
[13] = dose: 25.0 mg/kg/injection, schedule: Q01DX009 (ip), vehicle: saline
[14] = dose: 50.0 mg/kg/injection, schedule: Q01DX009 (ip), vehicle: saline
[15] = dose: 200.0 mg/kg/injection, schedule: Q01DX009 (ip), vehicle: saline

Measured: T/C

COc1ccc(N=Nc2ncc(N)nc2N)cc1
inactive: dose: 60.0 mg/kg/injection, schedule: Q01DX005 (ip), vehicle: Klucel (hydroxypropylcellulose) (HPC) 107 % of control | dose: 120.0 mg/kg/injection, schedule: Q01DX005 (ip), vehicle: Klucel (hydroxypropylcellulose) (HPC) 108 % of control | dose: 240.0 mg/kg/injection, schedule: Q01DX005 (ip), vehicle: Klucel (hydroxypropylcellulose) (HPC) 96 % of control

NC(N)=NCCCC(N)C(=O)CC(Cc1ccccc1)C(=O)O (configuration not stated)
inactive: dose: 8.8 mg/kg/injection, schedule: Q01DX005 (ip), vehicle: water 104 % of control | dose: 17.0 mg/kg/injection, schedule: Q01DX005 (ip), vehicle: water 108 % of control | dose: 34.0 mg/kg/injection, schedule: Q01DX005 (ip), vehicle: water 106 % of control | dose: 68.0 mg/kg/injection, schedule: Q01DX005 (ip), vehicle: water 100 % of control

CCN(CC)N=Nc1ccccc1-c1nc(N)c2ccccc2n1
inactive: dose: 12.5 mg/kg/injection, schedule: Q04DX003 (ip), vehicle: Klucel (hydroxypropylcellulose) (HPC) 105 % of control | dose: 25.0 mg/kg/injection, schedule: Q04DX003 (ip), vehicle: Klucel (hydroxypropylcellulose) (HPC) 102 % of control and 103 % of control and 94 % of control | dose: 50.0 mg/kg/injection, schedule: Q04DX003 (ip), vehicle: Klucel (hydroxypropylcellulose) (HPC) 98 % of control and 111 % of control and 91 % of control | dose: 100.0 mg/kg/injection, schedule: Q04DX003 (ip), vehicle: Klucel (hydroxypropylcellulose) (HPC) 102 % of control (2×) and 94 % of control | dose: 200.0 mg/kg/injection, schedule: Q04DX003 (ip), vehicle: Klucel (hydroxypropylcellulose) (HPC) 106 % of control and 119 % of control and 86 % of control

COc1ccc2c(c1)-c1nn(CCO)c(-c3cccnc3)c1CC2
inactive: dose: 100.0 mg/kg/injection, schedule: Q04DX002 (ip), vehicle: DMSO 94 % of control | dose: 200.0 mg/kg/injection, schedule: Q04DX002 (ip), vehicle: DMSO 102 % of control

CCOc1ccc(NC(=O)OCc2c3ccccc3cc3ccccc23)cc1
inactive: [1] 100 % of control | [2] 96 % of control | [3] 105 % of control

Cn1c(=O)ccc2c(=O)c3cc(Br)ccc3oc21
inactive: dose: 100.0 mg/kg/injection, schedule: Q01DX001 (ip), vehicle: saline with Tween-80 98 % of control | dose: 200.0 mg/kg/injection, schedule: Q01DX001 (ip), vehicle: saline with Tween-80 107 % of control | dose: 400.0 mg/kg/injection, schedule: Q01DX001 (ip), vehicle: saline with Tween-80 96 % of control

NC(=O)NC1CC2CCC1C2 (configuration not stated)
inactive: [4] 101 % of control | [5] 101 % of control | dose: 200.0 mg/kg/injection, schedule: Q01DX005 (ip), vehicle: saline 105 % of control

CCOC(=O)c1c(NC(=S)NC)sc2c1CCCC2
inactive: [6] 106 % of control | [7] 108 % of control | dose: 200.0 mg/kg/injection, schedule: Q01DX009 (ip), vehicle: saline with Tween-80 91 % of control

Cc1nc([N+](=O)[O-])cn1-c1nc2ccccn2c1[N+](=O)[O-]
inactive: [1] 92 % of control | [2] 94 % of control | [3] 91 % of control

Cc1ccc(Cl)c([N+](=O)[O-])c1N
inactive: [8] 104 % of control | [9] 104 % of control

C[n+]1ccc2ccccc2c1-c1c2ccccc2cc[n+]1C
inactive: dose: 12.5 mg/kg/injection, schedule: Q01DX001 (ip), vehicle: saline 115 % of control | dose: 25.0 mg/kg/injection, schedule: Q01DX001 (ip), vehicle: saline 101 % of control | dose: 50.0 mg/kg/injection, schedule: Q01DX001 (ip), vehicle: saline 99 % of control

NC(=O)NN=C(C(F)(F)F)C(F)(F)F
inactive: [6] 110 % of control | [7] 101 % of control

O=C1C=C(NCCc2cc3c(cc2Br)OCO3)CCC1
inactive: dose: 100.0 mg/kg/injection, schedule: Q04DX002 (ip), vehicle: saline with Tween-80 97 % of control | dose: 200.0 mg/kg/injection, schedule: Q04DX002 (ip), vehicle: saline with Tween-80 91 % of control | dose: 400.0 mg/kg/injection, schedule: Q04DX002 (ip), vehicle: saline with Tween-80 95 % of control

CC(=O)OCC12C(OC(C)=O)C(=O)C3C(OC(C)=O)C14OC3(C)COC(=O)c1cccnc1C(C)C(C)C(=O)OC(C(OC(C)=O)C2OC(C)=O)C4(C)O (configuration not stated)
inactive: dose: 3.0 mg/kg/injection, schedule: Q01DX009 (ip), vehicle: Klucel (hydroxypropylcellulose) (HPC) 104 % of control | dose: 6.0 mg/kg/injection, schedule: Q01DX009 (ip), vehicle: Klucel (hydroxypropylcellulose) (HPC) 93 % of control | dose: 12.0 mg/kg/injection, schedule: Q01DX009 (ip), vehicle: Klucel (hydroxypropylcellulose) (HPC) 96 % of control | dose: 24.0 mg/kg/injection, schedule: Q01DX009 (ip), vehicle: Klucel (hydroxypropylcellulose) (HPC) 96 % of control

O=C(CI)Nc1ccc2[nH]c(=O)cc(C(=O)O)c2c1
inactive: dose: 25.0 mg/kg/injection, schedule: Q01DX005 (ip), vehicle: Klucel (hydroxypropylcellulose) (HPC) 100 % of control | dose: 50.0 mg/kg/injection, schedule: Q01DX005 (ip), vehicle: Klucel (hydroxypropylcellulose) (HPC) 101 % of control | dose: 100.0 mg/kg/injection, schedule: Q01DX005 (ip), vehicle: Klucel (hydroxypropylcellulose) (HPC) 108 % of control

COCC1(CCC(C)=C(C)C)Nc2ccc(C(=O)O)cc2CC1Cl (configuration not stated)
inactive: dose: 1.25 mg/kg/injection, schedule: Q01DX005 (ip), vehicle: Klucel (hydroxypropylcellulose) (HPC) 98 % of control | dose: 2.5 mg/kg/injection, schedule: Q01DX005 (ip), vehicle: Klucel (hydroxypropylcellulose) (HPC) 101 % of control

O=C(O)CCCC#C/C=C/CCCC/C=C(Br)\C=C/Br
inactive: dose: 62.5 mg/kg/injection, schedule: Q01DX009 (ip), vehicle: olive oil, sesame oil, peanut oil 106 % of control | dose: 125.0 mg/kg/injection, schedule: Q01DX009 (ip), vehicle: olive oil, sesame oil, peanut oil 96 % of control | dose: 250.0 mg/kg/injection, schedule: Q01DX009 (ip), vehicle: olive oil, sesame oil, peanut oil 100 % of control

O=C(Cc1nc2ccc(Cl)cc2[nH]c1=O)c1ccccc1
inactive: [10] 112 % of control | [11] 108 % of control | [12] 107 % of control

CCOC(=O)c1[nH]c(C)nc1/N=N/N(C)C
inactive: [13] 119 % of control | [14] 116 % of control | [15] 116 % of control

COc1cc2ccc(CC(=O)NCCc3ccc4c(c3)OCO4)cc2cc1OC
inactive: [2] 100 % of control | [3] 100 % of control | dose: 400.0 mg/kg/injection, schedule: Q01DX009 (ip), vehicle: Klucel (hydroxypropylcellulose) (HPC) 90 % of control

CCCc1[nH]nc(-c2n[nH]c(CCC)c2CC)c1CC
inactive: [10] 101 % of control | [11] 93 % of control | [12] 110 % of control

C=C1C(=O)OC2CC1C(O)C/C(C)=C/CC/C(C)=C/C(O)CC2C (configuration not stated)
inactive: dose: 6.25 mg/kg/injection, schedule: Q01DX009 (ip), vehicle: Klucel (hydroxypropylcellulose) (HPC) 104 % of control | dose: 12.5 mg/kg/injection, schedule: Q01DX009 (ip), vehicle: Klucel (hydroxypropylcellulose) (HPC) 110 % of control | dose: 25.0 mg/kg/injection, schedule: Q01DX009 (ip), vehicle: Klucel (hydroxypropylcellulose) (HPC) 104 % of control and 112 % of control

COCC(=O)C(C(C)=O)C(c1ccc2c(c1)OCO2)C(C(C)=O)C(=O)COC (configuration not stated)
inactive: [8] 90 % of control | [9] 90 % of control | dose: 400.0 mg/kg/injection, schedule: Q04DX003 (ip), vehicle: saline with Tween-80 95 % of control

N#C[S-].N#C[S-].[Au+3].[Au+3].[CH3-].[CH3-].[CH3-].[CH3-]
inactive: dose: 50.0 mg/kg/injection, schedule: Q04DX003 (ip), vehicle: saline with Tween-80 100 % of control | [8] 120 % of control

NC(CC(=O)O)C(=O)OCc1ccccc1 (configuration not stated)
inactive: [13] 97 % of control | [14] 100 % of control | dose: 100.0 mg/kg/injection, schedule: Q01DX009 (ip), vehicle: saline 100 % of control | [15] 98 % of control

C#CC(CC)(CC)N1CC(OC(=O)NCC=C)C1
inactive: [1] 100 % of control | [2] 97 % of control | [3] 95 % of control

O=N[O-].O=N[O-].[I][Pt][I]
inactive: dose: 12.5 mg/kg/injection, schedule: Q01DX005 (ip), vehicle: saline 116 % of control and 117 % of control | dose: 25.0 mg/kg/injection, schedule: Q01DX005 (ip), vehicle: saline 124 % of control | [4] 105 % of control | [5] 124 % of control
